Test results published in patent US20260297081A1, “COMPOUNDS AND METHODS OF TREATING CANCERS” (Cullgen Inc., priority 2023, published 2026).

Columns and labels:
MCF7 cells = assay: Anti-proliferation (viability) of MCF7 cells (Table 7, FIG. 2B); assay type: cell-based; settings: Homo sapiens, MCF7, MCF7 cells, 3-6 days, 10-point serial dilution; read-out: GI IC50 in MCF-7
CDK4 = CDK4 (Homo sapiens, UniProt P11802+Q16531); assay: CDK4 percentage degradation in Calu-1 cells (Table 6); assay type: cell-based; parameters: Cells that express cyclin D1-3 and CDK4/6 proteins were treated with heterobifunctional compounds; endogenous in cells; host or cells: Calu-1; settings: 16 hours; for inhibition at 0.04 µM: 40 nM; for inhibition at 0.2 µM: 200 nM
CDK4, sequence (P11802 2-303 limits assumed): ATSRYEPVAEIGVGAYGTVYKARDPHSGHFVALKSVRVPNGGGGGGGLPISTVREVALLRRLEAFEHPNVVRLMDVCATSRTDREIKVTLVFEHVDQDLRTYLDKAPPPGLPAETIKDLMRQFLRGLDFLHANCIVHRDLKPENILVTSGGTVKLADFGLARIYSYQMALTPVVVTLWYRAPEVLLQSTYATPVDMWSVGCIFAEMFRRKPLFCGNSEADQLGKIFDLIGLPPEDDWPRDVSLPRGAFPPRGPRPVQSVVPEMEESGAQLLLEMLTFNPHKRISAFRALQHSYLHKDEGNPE
CDK4, sequence (P24385 whole entry partner): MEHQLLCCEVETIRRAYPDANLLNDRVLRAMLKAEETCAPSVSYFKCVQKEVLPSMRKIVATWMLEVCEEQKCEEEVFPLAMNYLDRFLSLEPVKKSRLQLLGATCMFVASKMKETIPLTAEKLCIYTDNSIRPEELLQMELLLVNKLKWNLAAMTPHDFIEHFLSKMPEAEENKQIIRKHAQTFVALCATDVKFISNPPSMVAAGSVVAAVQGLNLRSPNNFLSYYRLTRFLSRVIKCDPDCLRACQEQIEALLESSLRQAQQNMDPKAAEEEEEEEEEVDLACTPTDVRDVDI
CDK4, sequence (Q16531 2-1140 limits assumed): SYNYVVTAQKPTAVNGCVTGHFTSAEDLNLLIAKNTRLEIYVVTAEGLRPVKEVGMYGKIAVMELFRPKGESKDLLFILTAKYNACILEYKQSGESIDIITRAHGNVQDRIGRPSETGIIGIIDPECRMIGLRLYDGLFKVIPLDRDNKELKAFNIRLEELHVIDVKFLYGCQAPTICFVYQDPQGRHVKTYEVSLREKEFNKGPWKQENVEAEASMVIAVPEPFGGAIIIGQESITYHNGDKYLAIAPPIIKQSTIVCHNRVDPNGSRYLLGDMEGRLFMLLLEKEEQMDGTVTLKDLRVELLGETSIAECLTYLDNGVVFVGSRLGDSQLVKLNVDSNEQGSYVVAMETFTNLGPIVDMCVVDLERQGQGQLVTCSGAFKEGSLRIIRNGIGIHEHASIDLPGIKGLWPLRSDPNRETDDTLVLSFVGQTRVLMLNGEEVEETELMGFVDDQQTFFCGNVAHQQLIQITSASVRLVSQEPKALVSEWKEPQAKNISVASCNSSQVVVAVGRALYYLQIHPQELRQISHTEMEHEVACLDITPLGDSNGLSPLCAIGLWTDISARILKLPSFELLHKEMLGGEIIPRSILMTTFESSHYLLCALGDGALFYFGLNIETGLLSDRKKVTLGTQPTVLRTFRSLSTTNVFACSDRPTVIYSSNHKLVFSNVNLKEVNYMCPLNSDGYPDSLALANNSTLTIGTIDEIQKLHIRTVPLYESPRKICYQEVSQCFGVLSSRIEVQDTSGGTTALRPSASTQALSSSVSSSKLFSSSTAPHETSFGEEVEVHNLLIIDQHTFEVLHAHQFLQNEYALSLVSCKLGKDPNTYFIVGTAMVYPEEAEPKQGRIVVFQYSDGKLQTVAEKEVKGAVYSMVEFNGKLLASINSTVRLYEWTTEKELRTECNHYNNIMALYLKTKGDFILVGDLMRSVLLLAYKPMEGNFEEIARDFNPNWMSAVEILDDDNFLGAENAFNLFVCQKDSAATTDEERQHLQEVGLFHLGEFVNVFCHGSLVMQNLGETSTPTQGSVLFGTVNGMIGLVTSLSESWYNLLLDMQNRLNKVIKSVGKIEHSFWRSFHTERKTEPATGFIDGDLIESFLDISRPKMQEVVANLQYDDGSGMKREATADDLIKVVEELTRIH
Summary of the method: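 Calu-1 cells exposed to heterobifunctional compounds at 40 nM or 200 nM for 16 h. Cyclin D1 and CDK4 levels measured by Western blot of RIPA lysates (BCA-normalised loading), bands quantified by densitometry and expressed as percentage degradation.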

| SMILES | IC50 (MCF7 cells) [nM] | inhibition at 0.04 µM (CDK4) [%] | inhibition at 0.2 µM (CDK4) [%] |
| --- | --- | --- | --- |
| [2H]C([2H])([2H])Nc1ccc(C(=O)Nc2cc(C)n(C)n2)c(NC2CC3(CC(NC(=O)CN4CCN(c5ccc(Nc6ncc7c(C)c(C(C)=O)c(=O)n(C8CCCC8)c7n6)nc5)CC4)C3)C2)n1 (stereo not drawn) [CPD-244, 2-((6-(2-(4-(6-((6-acetyl-8-cyclopentyl-5-methyl-7-oxo-7,8-dihydropyrido[2,3-d]pyrimidin-2-yl)amino)pyridin-3-yl)piperazin-1-yl)acetamido)spiro[3.3]heptan-2-yl)amino)-N-(1,5-dimethyl-1H-pyrazol-3-yl)-6-((methyl-d3)amino)nicotinamide] | 50 to 100 | 30 to 50 | 50 to 80 |
| CNc1ccc(C(=O)Nc2ccc(N(C)C)nn2)c(NC2CCN(C(=O)CN3CCN(Cc4ccc(Nc5ncc6c(C)c(C(C)=O)c(=O)n(C7CCCC7)c6n5)nc4)CC3)CC2)n1 [CPD-300, 2-((1-(2-(4-((6-((6-acetyl-8-cyclopentyl-5-methyl-7-oxo-7,8-dihydropyrido[2,3-d]pyrimidin-2-yl)amino)pyridin-3-yl)methyl)piperazin-1-yl)acetyl)piperidin-4-yl)amino)-N-(6-(dimethylamino)pyridazin-3-yl)-6-(methylamino)nicotinamide] | 50 to 100 | < 30 | < 30 |
| CC(=O)c1c(C)c2cnc(Nc3ccc(N4CCN(C5CCN(C(=O)C6CC(Nc7nc(NC(C)C)ccc7C(=O)Nc7ccc(N(C)C)nn7)C6)C5)CC4)cn3)nc2n(C2CCCC2)c1=O (stereo not drawn) [CPD-402, 2-((3-(3-(4-(6-((6-acetyl-8-cyclopentyl-5-methyl-7-oxo-7,8-dihydropyrido[2,3-d]pyrimidin-2-yl)amino)pyridin-3-yl)piperazin-1-yl)pyrrolidine-1-carbonyl)cyclobutyl)amino)-N-(6-(dimethylamino)pyridazin-3-yl)-6-(isopropylamino)nicotinamide] | 50 to 100 | < 30 | < 30 |
| [2H]C([2H])([2H])Nc1ccc(C(=O)Nc2cccc(C)n2)c(NC2CC3(CC(NC(=O)CN4CCN(c5ccc(Nc6ncc7c(C)c(C(C)=O)c(=O)n(C8CCCC8)c7n6)nc5)CC4)C3)C2)n1 (stereo not drawn) [CPD-232, 2-((6-(2-(4-(6-((6-acetyl-8-cyclopentyl-5-methyl-7-oxo-7,8-dihydropyrido[2,3-d]pyrimidin-2-yl)amino)pyridin-3-yl)piperazin-1-yl)acetamido)spiro[3.3]heptan-2-yl)amino)-6-((methyl-d3)amino)-N-(6-methylpyridin-2-yl)nicotinamide] | 50 to 100 | 30 to 50 | 50 to 80 |
| CNc1ccc(C(=O)Nc2ccc(F)c(C)n2)c(NC2CC3(CC(NC(=O)CN4CCN(c5ccc(Nc6ncc7c(C)c(C(C)=O)c(=O)n(C8CCCC8)c7n6)nc5)CC4)C3)C2)n1 (stereo not drawn) [CPD-221, 2-((6-(2-(4-(6-((6-acetyl-8-cyclopentyl-5-methyl-7-oxo-7,8-dihydropyrido[2,3-d]pyrimidin-2-yl)amino)pyridin-3-yl)piperazin-1-yl)acetamido)spiro[3.3]heptan-2-yl)amino)-N-(5-fluoro-6-methylpyridin-2-yl)-6-(methylamino)nicotinamide] | > 100 | 50 to 80 | 50 to 80 |
| [2H]C([2H])([2H])Nc1ccc(C(=O)Nc2ccc(N(C)C)nn2)c(NC2CC3(CC(NC(=O)CN4CCN(c5ccc(Nc6ncc7c(C)c(C(C)=O)c(=O)n(C8CCCC8)c7n6)nc5)CC4)C3)C2)n1 (stereo not drawn) [CPD-241, 2-((6-(2-(4-(6-((6-acetyl-8-cyclopentyl-5-methyl-7-oxo-7,8-dihydropyrido[2,3-d]pyrimidin-2-yl)amino)pyridin-3-yl)piperazin-1-yl)acetamido)spiro[3.3]heptan-2-yl)amino)-N-(6-(dimethylamino)pyridazin-3-yl)-6-((methyl-d3)amino)nicotinamide] | 50 to 100 | 50 to 80 | 50 to 80 |
| CNc1ccc(C(=O)Nc2ccc(N(C)C)nn2)c(NC2CC(NC(=O)C(C)N3CCN(c4ccc(Nc5ncc6c(C)c(C(C)=O)c(=O)n(C7CCCC7)c6n5)nc4)CC3)C2)n1 (stereo not drawn) [CPD-242, 2-((3-(2-(4-(6-((6-acetyl-8-cyclopentyl-5-methyl-7-oxo-7,8-dihydropyrido[2,3-d]pyrimidin-2-yl)amino)pyridin-3-yl)piperazin-1-yl)propanamido)cyclobutyl)amino)-N-(6-(dimethylamino)pyridazin-3-yl)-6-(methylamino)nicotinamide] | > 100 | 50 to 80 | 50 to 80 |
| CNc1ccc(C(=O)Nc2ccc(N(C)C)nn2)c(NC2CCN(C(=O)C3CC34CCN(c3ccc(Nc5ncc6c(C)c(C(C)=O)c(=O)n(C7CCCC7)c6n5)nc3)CC4)CC2)n1 (stereo not drawn) [CPD-328, 2-((1-(6-(6-((6-acetyl-8-cyclopentyl-5-methyl-7-oxo-7,8-dihydropyrido[2,3-d]pyrimidin-2-yl)amino)pyridin-3-yl)-6-azaspiro[2.5]octane-1-carbonyl)piperidin-4-yl)amino)-N-(6-(dimethylamino)pyridazin-3-yl)-6-(methylamino)nicotinamide] | < 50 | < 30 | < 30 |
| CC(=O)c1c(C)c2cnc(Nc3ccc(CN4CCN(CC(=O)N5CCC(Nc6nc(NC(C)C)ccc6C(=O)Nc6ccc(N(C)C)nn6)CC5)CC4)cn3)nc2n(C2CCCC2)c1=O [CPD-358, 2-((1-(2-(4-((6-((6-acetyl-8-cyclopentyl-5-methyl-7-oxo-7,8-dihydropyrido[2,3-d]pyrimidin-2-yl)amino)pyridin-3-yl)methyl)piperazin-1-yl)acetyl)piperidin-4-yl)amino)-N-(6-(dimethylamino)pyridazin-3-yl)-6-(isopropylamino)nicotinamide] | 50 to 100 | < 30 | < 30 |
| CNc1ccc(C(=O)Nc2ccc(N(C)C)nn2)c(N[C@H]2CC[C@H](NC(=O)CCN3CCN(c4ccc(Nc5ncc6c(C)c(C(C)=O)c(=O)n(C7CCCC7)c6n5)nc4)CC3)CC2)n1 [CPD-223, 2-((trans-4-(3-(4-(6-((6-acetyl-8-cyclopentyl-5-methyl-7-oxo-7,8-dihydropyrido[2,3-d]pyrimidin-2-yl)amino)pyridin-3-yl)piperazin-1-yl)propanamido)cyclohexyl)amino)-N-(6-(dimethylamino)pyridazin-3-yl)-6-(methylamino)nicotinamide] | 50 to 100 | 50 to 80 | 50 to 80 |

Further lines, results first:

| IC50 (MCF7 cells) [nM] | inhibition at 0.04 µM (CDK4) [%] | inhibition at 0.2 µM (CDK4) [%] | SMILES |
| --- | --- | --- | --- |
| < 50 | 30 to 50 | 30 to 50 | CNc1ccc(C(=O)Nc2ccc(N(C)C)nn2)c(NC2CC3(C2)CN(C(=O)CC(C)N2CCN(c4ccc(Nc5ncc6c(C)c(C(C)=O)c(=O)n(C7CCCC7)c6n5)nc4)CC2)C3)n1 (stereo not drawn) [CPD-224, 2-((2-(3-(4-(6-((6-acetyl-8-cyclopentyl-5-methyl-7-oxo-7,8-dihydropyrido[2,3-d]pyrimidin-2-yl)amino)pyridin-3-yl)piperazin-1-yl)butanoyl)-2-azaspiro[3.3]heptan-6-yl)amino)-N-(6-(dimethylamino)pyridazin-3-yl)-6-(methylamino)nicotinamide] |
| < 50 | 30 to 50 | 30 to 50 | CC(=O)c1c(C)c2cnc(Nc3ccc(N4CCN(CC(=O)NCC5CC(Nc6nc(NC(C)C)ccc6C(=O)Nc6ccc(N(C)C)nn6)C5)CC4)cn3)nc2n(C2CCCC2)c1=O (stereo not drawn) [CPD-316, 2-((3-((2-(4-(6-((6-acetyl-8-cyclopentyl-5-methyl-7-oxo-7,8-dihydropyrido[2,3-d]pyrimidin-2-yl)amino)pyridin-3-yl)piperazin-1-yl)acetamido)methyl)cyclobutyl)amino)-N-(6-(dimethylamino)pyridazin-3-yl)-6-(isopropylamino)nicotinamide] |
| < 50 | < 30 | < 30 | CNc1ccc(C(=O)Nc2ccc(N(C)C)nn2)c(NC2CC3(C2)CN(C(=O)C2CC24CCN(c2ccc(Nc5ncc6c(C)c(C(C)=O)c(=O)n(C7CCCC7)c6n5)nc2)CC4)C3)n1 (stereo not drawn) [CPD-324, 2-((2-(6-(6-((6-acetyl-8-cyclopentyl-5-methyl-7-oxo-7,8-dihydropyrido[2,3-d]pyrimidin-2-yl)amino)pyridin-3-yl)-6-azaspiro[2.5]octane-1-carbonyl)-2-azaspiro[3.3]heptan-6-yl)amino)-N-(6-(dimethylamino)pyridazin-3-yl)-6-(methylamino)nicotinamide] |
| < 50 | < 30 | < 30 | [2H]C([2H])([2H])Nc1ccc(C(=O)Nc2ccc(N(C)C)nn2)c(NC2CC3(C2)CN(C(=O)CC(N2CCN(c4ccc(Nc5ncc6c(C)c(C(C)=O)c(=O)n(C7CCCC7)c6n5)nc4)CC2)C(F)(F)F)C3)n1 (stereo not drawn) [CPD-342, 2-((2-(3-(4-(6-((6-acetyl-8-cyclopentyl-5-methyl-7-oxo-7,8-dihydropyrido[2,3-d]pyrimidin-2-yl)amino)pyridin-3-yl)piperazin-1-yl)-4,4,4-trifluorobutanoyl)-2-azaspiro[3.3]heptan-6-yl)amino)-N-(6-(dimethylamino)pyridazin-3-yl)-6-((methyl-d3)amino)nicotinamide] |
| < 50 | 50 to 80 | 50 to 80 | CNc1ccc(C(=O)Nc2ccc(N(C)C)nn2)c(NC2CCN(C(=O)CCN3CCN(c4ccc(Nc5ncc6c(C)c(C(C)=O)c(=O)n(C7CCCC7)c6n5)nc4)CC3)CC2)n1 [CPD-203, 2-((1-(3-(4-(6-((6-acetyl-8-cyclopentyl-5-methyl-7-oxo-7,8-dihydropyrido[2,3-d]pyrimidin-2-yl)amino)pyridin-3-yl)piperazin-1-yl)propanoyl)piperidin-4-yl)amino)-N-(6-(dimethylamino)pyridazin-3-yl)-6-(methylamino)nicotinamide] |
